Experiments:
[1] = molecular target: T1, Ou IAD (indoleacetate decarboxylase from Olsenella uli) (Olsenella uli, UniProt E1QXZ2); test: inhibition in assays with I3A; assay type: biochemical; conditions: partial competitive inhibitor versus I3A, not consumed
T1 construct: gene Olsu_0124; purified; glycyl radical installed by Ou IAD-AE with SAM; catalytic Gly853 and Cys500; tags and host only in supplement

[2] = molecular target: T2, Cs HPAD (hydroxyphenylacetate decarboxylase) (Clostridium scatologenes, UniProt Q38HX4); test: p-cresol formation, deuterium incorporation in D2O; assay type: biochemical; conditions: mere turnover
T2 construct: gene csdB; glycyl radical enzyme; residues Cys503, Glu505, Glu637; with 4-hydroxyphenylacetate decarboxylase small subunit
T2 sequence (Q38HX3 whole entry): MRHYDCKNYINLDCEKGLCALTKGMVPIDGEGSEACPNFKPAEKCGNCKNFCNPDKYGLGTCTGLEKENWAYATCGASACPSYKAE
T2 sequence (Q38HX4 whole entry): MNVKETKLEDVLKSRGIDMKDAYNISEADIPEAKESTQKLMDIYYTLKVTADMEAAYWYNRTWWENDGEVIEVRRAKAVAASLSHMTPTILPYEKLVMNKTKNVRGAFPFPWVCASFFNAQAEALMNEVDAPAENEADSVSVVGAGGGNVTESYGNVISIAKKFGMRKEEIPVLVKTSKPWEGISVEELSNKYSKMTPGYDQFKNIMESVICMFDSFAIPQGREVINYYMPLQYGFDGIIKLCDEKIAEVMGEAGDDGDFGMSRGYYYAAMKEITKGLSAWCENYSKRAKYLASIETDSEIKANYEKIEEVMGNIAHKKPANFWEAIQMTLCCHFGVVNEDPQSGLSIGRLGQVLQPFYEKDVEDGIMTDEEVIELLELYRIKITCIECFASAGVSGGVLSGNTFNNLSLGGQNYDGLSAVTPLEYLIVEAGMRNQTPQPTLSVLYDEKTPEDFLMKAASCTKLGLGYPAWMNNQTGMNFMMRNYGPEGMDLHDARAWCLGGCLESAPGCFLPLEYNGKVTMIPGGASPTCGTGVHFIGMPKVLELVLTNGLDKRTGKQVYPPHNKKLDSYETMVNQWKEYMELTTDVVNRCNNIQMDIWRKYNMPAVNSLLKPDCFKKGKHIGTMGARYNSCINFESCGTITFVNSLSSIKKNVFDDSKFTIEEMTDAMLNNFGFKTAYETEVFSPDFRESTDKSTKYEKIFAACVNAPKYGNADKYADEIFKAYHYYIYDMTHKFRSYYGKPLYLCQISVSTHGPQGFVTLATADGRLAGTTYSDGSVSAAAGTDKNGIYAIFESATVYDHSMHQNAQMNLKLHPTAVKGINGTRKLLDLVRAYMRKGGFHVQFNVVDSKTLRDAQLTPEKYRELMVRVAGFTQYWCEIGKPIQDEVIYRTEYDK

T1 sequence (E1QXZ2 entry or part of it): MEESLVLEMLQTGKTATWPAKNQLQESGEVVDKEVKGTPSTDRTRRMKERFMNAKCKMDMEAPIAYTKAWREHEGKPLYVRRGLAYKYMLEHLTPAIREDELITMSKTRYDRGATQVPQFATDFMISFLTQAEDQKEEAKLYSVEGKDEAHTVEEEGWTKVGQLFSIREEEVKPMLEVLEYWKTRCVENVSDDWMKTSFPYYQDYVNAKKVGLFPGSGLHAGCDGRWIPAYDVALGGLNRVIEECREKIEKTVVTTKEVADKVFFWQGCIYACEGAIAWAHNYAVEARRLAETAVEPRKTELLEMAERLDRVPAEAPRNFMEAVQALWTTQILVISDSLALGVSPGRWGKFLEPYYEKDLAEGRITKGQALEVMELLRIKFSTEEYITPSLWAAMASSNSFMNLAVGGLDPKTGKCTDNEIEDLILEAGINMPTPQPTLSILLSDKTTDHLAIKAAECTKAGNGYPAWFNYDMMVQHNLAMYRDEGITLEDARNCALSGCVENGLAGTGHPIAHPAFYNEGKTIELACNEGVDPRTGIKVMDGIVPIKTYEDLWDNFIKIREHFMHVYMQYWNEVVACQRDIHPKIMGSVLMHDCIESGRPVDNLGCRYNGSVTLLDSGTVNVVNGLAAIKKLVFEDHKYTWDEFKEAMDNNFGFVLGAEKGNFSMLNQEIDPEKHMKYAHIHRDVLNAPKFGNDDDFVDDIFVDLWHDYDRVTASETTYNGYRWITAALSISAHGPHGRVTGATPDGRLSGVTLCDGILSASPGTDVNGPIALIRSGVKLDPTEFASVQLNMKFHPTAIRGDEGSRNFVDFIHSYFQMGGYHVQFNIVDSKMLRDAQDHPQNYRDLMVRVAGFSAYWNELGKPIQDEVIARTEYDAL

How did the “inhibition in assays with I3A” value ([1]; racemic) turn out when CC(C(=O)O)c1c[nH]c2ccccc12 (racemic) [α-Me-I3A] was run?
The value was “Both compounds are partial competitive inhibitors in assays with I3A”.

For O=C(O)Cc1ccc(O)cc1 [HPA, p-hydroxyphenylacetate], which “p-cresol formation, deuterium incorporation in D2O” value [2] is on record?
The value was “When HPA and Cs HPAD were incubated with D2O, only the expected D1-p-cresol”.

How did the “inhibition in assays with I3A” value [1] turn out when CC(C)(C(=O)O)c1c[nH]c2ccccc12 [α,α-Me2-I3A] was run?
Its value is “Both compounds are partial competitive inhibitors in assays with I3A”.

Source: PMC9248008, “Mechanistic Studies of a Skatole-Forming Glycyl Radical Enzyme Suggest Reaction Initiation via Hydrogen Atom Transfer” (Journal of the American Chemical Society, 2022)
